Assays:
Format in all cases: cell-based
hT2R54 = molecular target: T1, hT2R54 (Homo sapiens, UniProt P59534); experiment: calcium imaging of HEK293 cells transfected with hT2R54 and chimeric G protein G16gust44; conditions: for response of hT2R54 (increase in intracellular calcium concentration): different concentrations, FIG. 2 / FIG. 4; for response of HEK-293 cells that express hT2R54: 2 mM concentrations, FIG. 3
T1 construct: expressed in transfected cells; host or cells: human embryonic kidney (HEK293) cells, transient transfection
T1 sequence (P59534 18-338): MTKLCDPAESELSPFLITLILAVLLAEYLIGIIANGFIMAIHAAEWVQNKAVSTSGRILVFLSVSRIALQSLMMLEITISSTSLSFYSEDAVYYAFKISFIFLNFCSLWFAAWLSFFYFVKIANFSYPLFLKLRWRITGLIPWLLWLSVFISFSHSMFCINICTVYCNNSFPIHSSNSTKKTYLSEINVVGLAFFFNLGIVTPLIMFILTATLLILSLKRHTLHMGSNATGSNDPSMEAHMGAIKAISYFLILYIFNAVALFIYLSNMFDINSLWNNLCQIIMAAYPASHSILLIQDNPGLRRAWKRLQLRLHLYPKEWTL
Procedure: (§1) More particularly, the present inventors transfected HEK293 cells with a particular hT2R together with a chimeric G protein (G 16gust44) which comprises the Gα16 G protein sequence modified by the replacement of carboxy-44 amino acid residues with those of gustducin, and recorded responses of these cells to specific bitter ligands by calcium imaging methods.
(§2) Activation of these receptors by 3CoQAL is measured in a cell-based assay detecting changes in intracellular calcium concentration. In brief, human embryonic kidney cells are seeded in 48-well tissue culture plates. 24 hours later, the cells are transiently transfected with plasmid containing either the hT2R8, hT2R14 or hT2R54 nucleic acid sequence, and plasmid containing a chimeric G protein (G16gust44). Another 24 hours later, the cells are incubated with a fluorescent dye specific for calcium (Fluo-4 or Fura-2; Molecular Probes) that provides a fast, simple and reliable fluorescence-based method for detecting changes in calcium concentration inside the cell. Activation of the T2Rs elicits a signaling cascade leading to the activation of PLC and a subsequent increase in intracellular calcium concentration. This increase in calcium concentration changes the fluorescence properties of the calcium dye inside the cells. These changes are monitored using fluorescence microscopy and a specific design software (Imaging Workbench, Axon).
as §2, with “this receptor” for “these receptors”, “3CQAL and 4CQAL” for “3CoQAL”
as §2, with “this receptor” for “these receptors”, “4FQAL” for “3CoQAL”, “brief” for “brief,”

hT2R14 = molecular target: T2, hT2R14 (Homo sapiens, UniProt Q9NYV8); experiment: calcium imaging of HEK293 cells transfected with hT2R14 and chimeric G protein G16gust44; conditions: for response of hT2R14 (increase in intracellular calcium concentration): different concentrations, FIG. 2; for response of HEK-293 cells that express hT2R14: 2 mM concentrations, FIG. 3
T2 construct: expressed in transfected cells; host or cells: human embryonic kidney (HEK293) cells, transient transfection
T2 sequence (Q9NYV8 1-317): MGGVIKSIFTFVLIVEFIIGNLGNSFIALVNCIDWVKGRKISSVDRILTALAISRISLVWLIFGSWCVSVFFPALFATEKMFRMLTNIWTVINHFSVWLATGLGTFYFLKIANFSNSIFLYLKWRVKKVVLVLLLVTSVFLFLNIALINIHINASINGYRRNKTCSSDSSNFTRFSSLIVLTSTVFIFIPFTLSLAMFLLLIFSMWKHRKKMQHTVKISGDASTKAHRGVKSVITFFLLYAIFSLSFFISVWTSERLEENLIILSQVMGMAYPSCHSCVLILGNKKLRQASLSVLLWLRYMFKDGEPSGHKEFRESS
Procedure: as §1, §2
as §2, with “this receptor” for “these receptors”, “3CQAL and 4CQAL” for “3CoQAL”
as §2, with “this receptor” for “these receptors”, “4FQAL” for “3CoQAL”, “brief” for “brief,”

hT2R8 = molecular target: T3, hT2R8 (Homo sapiens, UniProt Q9NYW2); experiment: calcium imaging of HEK293 cells transfected with hT2R8 and chimeric G protein G16gust44; conditions: for response of hT2R8 (increase in intracellular calcium concentration): different concentrations, FIG. 2 / FIG. 4; for response of HEK-293 cells that express hT2R8: 2 mM concentrations, FIG. 3
T3 construct: expressed in transfected cells; host or cells: human embryonic kidney (HEK293) cells, transient transfection
T3 sequence (Q9NYW2 1-309): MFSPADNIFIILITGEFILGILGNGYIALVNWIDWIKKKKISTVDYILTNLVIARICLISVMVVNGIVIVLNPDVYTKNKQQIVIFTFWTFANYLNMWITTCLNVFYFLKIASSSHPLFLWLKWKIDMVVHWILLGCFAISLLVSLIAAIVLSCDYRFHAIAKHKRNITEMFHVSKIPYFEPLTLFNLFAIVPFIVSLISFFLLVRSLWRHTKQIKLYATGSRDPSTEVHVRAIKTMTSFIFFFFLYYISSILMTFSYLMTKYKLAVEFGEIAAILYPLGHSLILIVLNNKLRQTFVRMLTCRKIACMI
Procedure: as §1, §2
as §2, with “this receptor” for “these receptors”, “3CQAL and 4CQAL” for “3CoQAL”
as §2, with “this receptor” for “these receptors”, “4FQAL” for “3CoQAL”, “brief” for “brief,”

| Structure (SMILES) | response of hT2R54 (increase in intracellular calcium concentration) (hT2R54) | response of hT2R14 (increase in intracellular calcium concentration) (hT2R14) | response of hT2R8 (increase in intracellular calcium concentration) (hT2R8) | response of HEK-293 cells that express hT2R54 (hT2R54) | response of HEK-293 cells that express hT2R14 (hT2R14) | response of HEK-293 cells that express hT2R8 (hT2R8) |
| --- | --- | --- | --- | --- | --- | --- |
| O=C(C=Cc1ccc(O)cc1)OC1CC2(O)CC(OC2=O)C1O (stereo not drawn) [3CoQAL] | responded | responded | responded |  |  |  |
| O=C(/C=C/c1ccc(O)c(O)c1)O[C@@H]1C[C@]2(O)C[C@@H](OC2=O)[C@@H]1O [3CQAL] |  |  |  | specifically respond | specifically respond | specifically respond |

Results, then the compound that gave them:

| response of hT2R54 (increase in intracellular calcium concentration) (hT2R54) | response of hT2R14 (increase in intracellular calcium concentration) (hT2R14) | response of hT2R8 (increase in intracellular calcium concentration) (hT2R8) | response of HEK-293 cells that express hT2R54 (hT2R54) | response of HEK-293 cells that express hT2R14 (hT2R14) | response of HEK-293 cells that express hT2R8 (hT2R8) | Structure (SMILES) |
| --- | --- | --- | --- | --- | --- | --- |
|  |  |  | specifically respond | specifically respond | specifically respond | O=C(C=Cc1ccc(O)c(O)c1)OC1C(O)CC2(O)CC1OC2=O (stereo not drawn) [4CQAL] |
| do not respond | do not respond | do not respond | do not respond | do not respond | do not respond | OC[C@H]1O[C@@](CO)(O[C@H]2O[C@H](CO)[C@@H](O)[C@H](O)[C@H]2O)[C@@H](O)[C@@H]1O [sucrose] |
| responded specifically | specifically activate | responded specifically |  |  |  | COc1cc(/C=C/C(=O)O[C@@H]2[C@H](O)C[C@]3(O)C[C@H]2OC3=O)ccc1O [4FQAL] |

Source: patent US8318447B2, “Use of bitter taste receptor to screen for compounds that offset the bitter taste of chlorogenic lactone containing coffee compositions” (Senomyx Inc., priority 2005, dated 2012)
